Source: patent publication US20240165196A1, “Beta-Lactamase Inhibitors” (VIB VZW, priority 2021, published 2024)

Columns and labels:
[1] = tested on: E. coli clinical isolate, β-lactamase TEM-1; test: MIC of ampicillin without/with 30 μg/mL TEM3.2, clinical isolates; type: cell-based; settings: isolates year NA, country NA
Procedure: (§1) Moreover, the core sequence of peptide TEM3.0 also occurs in the structurally related SHV β-lactamase (FIG. 2E). Although the C-terminal extension residues H and N have been replaced with physicochemically similar R and Q, respectively (FIG. 2H). […] To quantify the synergy between these four peptides and penicillin G, we performed a so-called checkerboard assay, which allows to compare the activity of two test compounds co-incubated (here peptide and a beta-lactam antibiotic), to their individual activities in isolation. The result from the assay is quantified as the Fractional Inhibitory Concentration Index (FICI), and it is generally accepted that values below 0.5 indicate synergistic effects between the compounds. As a control, we generated a peptide using the same design, but based on a previously identified APR from the β-galactosidase enzyme (BGAL)^16 from E. coli (APR=SVIIWSL, peptide sequence=[…]) that has a MIC value>100 μg/mL on E. coli strain UZ_TEM104. We evaluated the synergy of the peptides with penicillin G in clinical E. coli isolates carrying the TEM (FIG. 2I) or SHV enzymes (FIG. 2J). […] As a further control, we also performed a checkerboard assay with an E. coli strain that was resistant to the aminoglycoside kanamycin and observed no synergy between this unrelated antibiotic and our peptides (FIG. 2L), in line with the notion that we are inhibiting a beta-lactamase but not the aminoglycoside degrading enzyme. […] The list of strains included some that harbored only TEM or SHV, but others contained additional Ambler Class A (CTX-M or OXA) or Class B (VIM and NDM) beta-lactamases. […] In contrast, the presence of the NDM-type […], that does have a high affinity for Ampicillin and that is completely distinct in sequence and structure from TEM and SHV, seemed to completely prevent the effect of the peptide on the beta-lactam sensitivity of the strains in which it occurred (see also further). As it appeared that TEM3.2 had activity in most isolates tested, we decided to focus further analysis on this peptide. Furthermore, we tested the performance of the TEM3.2 peptide in a checkerboard assay on strains carrying ESBL mutants of TEM, i.e. extended-spectrum mutations that cluster around the active site of the enzyme, and not in the aggregation prone region targeted by the peptide, and as expected from our mode of action, we observed synergy with ampicillin on these strains (FIG. 2M).
(§2) Determination of MIC values using the broth microdilution in the 96-well plate (BD Biosciences, Belgium) according to the EUCAST guideline, which was performed in 96-well polystyrene flat bottom microtiter plates (BD Biosciences). Briefly, a single colony was inoculated into 5 mL Difco™ Mueller Hinton Broth (BD Biosciences Ref 275730) and grown to the end-exponential growth phase in a shaking incubator at 37° C. Cultures were subsequently diluted to an MacFarland (0.5 optical density) then the culture was diluted to reach 10^6 CFU/mL in fresh MHB medium. 50 μl of different concentration of peptides ranging from 128 to 2 μg/mL were serially diluted to the sterile 96-well plate in MHB. 50 μL of the diluted bacteria in MHB were pipetted into 96-well plates to reach the final volume of 100 μL. The bacteria grown with the maximum concentration of carrier and medium were considered as positive and negative controls, respectively. The plates were statically incubated overnight at 37° C. to allow bacterial growth. OD was measured at 590 nm a multipurpose ultraviolet-visible plate reader, and the absorbance of the growth bacteria was measured using absorbance reader. Bacterial growth was also visually inspected and agreed well with the OD reading.

[2] = tested on: E. coli clinical isolate, β-lactamase TEM-ESBL; CTX-M-27; test: as above; type: cell-based; settings: isolate 2017 Romania, UTI, Urine
Procedure: as §1, §2

[3] = tested on: E. coli clinical isolate, β-lactamase TEM-ESBL; CTX-M-15; NDM-19; test: as above; type: cell-based; settings: isolate 2017 Qatar, IAI, Abscess
Procedure: as §1, §2

[4] = tested on: E. coli clinical isolate, β-lactamase TEM-ESBL; CTX-M-15; NDM-5; test: as above; type: cell-based; settings: isolate 2017 Qatar, UTI, Urine
Procedure: as §1, §2

[5] = tested on: E. coli clinical isolate, β-lactamase TEM-ESBL; test: as above; type: cell-based
Procedure: as §1, §2

[6] = tested on: E. coli clinical isolate, β-lactamase SHV-12; TEM-ESBL; test: as above; type: cell-based; settings: isolate 2017 Germany, RTI, Bronchi
Procedure: as §1, §2

[7] = tested on: E. coli clinical isolate, β-lactamase SHV-2; CTX-M-55; VIM-1; test: as above; type: cell-based; settings: isolate 2017 Turkey, UTI, Urine
Procedure: as §1, §2

[8] = tested on: E. coli clinical isolate, β-lactamase TEM-ESBL; CTX-M-TYPE; test: as above; type: cell-based; settings: isolate 2017 France, IAI, Peritoneal Fluid
Procedure: as §1, §2

[9] = tested on: E. coli clinical isolate, β-lactamase TEM-ESBL; CTX-M-24; OXA-48; test: as above; type: cell-based; settings: isolate 2017 Turkey, IAI, Abscess
Procedure: as §1, §2

[10] = target: T1, recombinantly purified TEM-1 (Escherichia coli, UniProt P62593); type: biochemical, E. coli; settings: thioflavin-T aggregation assay
T1 construct: DNA TEM (870 bp) or SHV (894 bp) were each sub-cloned into a PUC57 vector cloning site NdeI/XhoI; His-tag (N); TEV cleavage site (N); made in house; host or cells: E. coli BL21 (DE3)
T1 sequence (P62593 24-286 limits assumed): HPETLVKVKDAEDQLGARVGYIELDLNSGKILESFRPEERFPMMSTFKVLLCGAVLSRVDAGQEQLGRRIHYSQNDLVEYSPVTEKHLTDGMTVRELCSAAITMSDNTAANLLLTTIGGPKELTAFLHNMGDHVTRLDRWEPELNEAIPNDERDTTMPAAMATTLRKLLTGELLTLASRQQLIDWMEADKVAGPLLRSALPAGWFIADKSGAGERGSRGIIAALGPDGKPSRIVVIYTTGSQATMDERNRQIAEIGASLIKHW
From the text: Three replicates are shown for each condition. […] A single representative image is shown. […] Three replicates are shown for each condition. […] A single representative image is shown. […] A single representative image is shown. […] A single representative image is shown.

Substance: Ac-RLTAFLHNRRPRLTAFLRQRR-NH2 [TEM3.2]
- MIC ampicillin + 30 μg/mL TEM-3.2 [1]: ≤0.06
- MIC ampicillin + 30 μg/mL TEM-3.2 [2]: ≤0.06
- MIC ampicillin + 30 μg/mL TEM-3.2 [3]: >64
- MIC ampicillin + 30 μg/mL TEM-3.2 [4]: >64
- MIC ampicillin + 30 μg/mL TEM-3.2 ([5]; isolate 2016 Germany, UTI, Urine): ≤0.06
- MIC ampicillin + 30 μg/mL TEM-3.2 ([5]; isolate 2016 Lithuania, UTI, Urine): 1
- MIC ampicillin + 30 μg/mL TEM-3.2 ([5]; isolate 2017 Israel, UTI, Urine): ≤0.06
- MIC ampicillin + 30 μg/mL TEM-3.2 ([5]; isolate 2017 Portugal, RTI, Bronchi): 0.5
- MIC ampicillin + 30 μg/mL TEM-3.2 ([5]; isolates 2016 South Africa, IAI, Peritoneal Fluid): ≤0.06
- MIC ampicillin + 30 μg/mL TEM-3.2 [6]: 0.12
- MIC ampicillin + 30 μg/mL TEM-3.2 [7]: ≤0.06
- MIC ampicillin + 30 μg/mL TEM-3.2 [8]: ≤0.06
- MIC ampicillin + 30 μg/mL TEM-3.2 [9]: ≤0.06
- induction of aggregation of recombinantly purified TEM beta-lactamase [10]: potent inducer of the aggregation
